In ChEMBL document CHEMBL2412992, “Fluorescent ligands for adenosine receptors” (Bioorg Med Chem Lett, 2013):
Activity calls are given as the source filed them. The calls are words filed in the database; no cut-off is given here.

Assays:
[1] = target: T1, Adenosine receptor A1 (Homo sapiens) (UniProt P30542); test: Displacement of [3H]R-PIA from human adenosine A1 receptor expressed in CHO cells at 10 uM after 60 mins by […] analysis relative to control; format: cell-based
T1 sequence (whole entry): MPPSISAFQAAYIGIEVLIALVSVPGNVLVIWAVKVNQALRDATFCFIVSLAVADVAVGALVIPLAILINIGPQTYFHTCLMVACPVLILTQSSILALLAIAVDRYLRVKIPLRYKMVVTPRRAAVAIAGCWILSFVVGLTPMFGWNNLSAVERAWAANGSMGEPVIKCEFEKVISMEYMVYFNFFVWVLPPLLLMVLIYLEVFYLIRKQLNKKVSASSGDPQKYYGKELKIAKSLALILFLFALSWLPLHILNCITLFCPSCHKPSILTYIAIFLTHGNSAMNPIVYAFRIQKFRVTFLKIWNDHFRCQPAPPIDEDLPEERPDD

[2] = target: T2, Adenosine receptor A2a (Homo sapiens, UniProt P29274); test: Displacement of [3H]CGS21680 from human adenosine A2A receptor expressed in HEK293 cells at 10 uM after 60 mins by […] analysis relative to control; format: cell-based
T2 sequence (P29274 whole entry): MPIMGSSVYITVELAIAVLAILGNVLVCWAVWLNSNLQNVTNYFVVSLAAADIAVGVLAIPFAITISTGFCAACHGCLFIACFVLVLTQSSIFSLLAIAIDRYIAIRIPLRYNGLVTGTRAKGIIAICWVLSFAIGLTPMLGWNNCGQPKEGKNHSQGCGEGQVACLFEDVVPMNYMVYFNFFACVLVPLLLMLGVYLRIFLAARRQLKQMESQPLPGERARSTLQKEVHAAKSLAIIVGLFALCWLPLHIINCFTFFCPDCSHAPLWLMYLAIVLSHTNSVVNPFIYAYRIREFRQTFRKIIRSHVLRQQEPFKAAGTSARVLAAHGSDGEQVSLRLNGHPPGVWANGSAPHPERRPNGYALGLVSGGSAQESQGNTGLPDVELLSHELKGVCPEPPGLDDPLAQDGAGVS

[3] = target: T3, Adenosine receptor A3 (Homo sapiens, UniProt P0DMS8); format: cell-based, CHO
T3 sequence (P0DMS8 whole entry): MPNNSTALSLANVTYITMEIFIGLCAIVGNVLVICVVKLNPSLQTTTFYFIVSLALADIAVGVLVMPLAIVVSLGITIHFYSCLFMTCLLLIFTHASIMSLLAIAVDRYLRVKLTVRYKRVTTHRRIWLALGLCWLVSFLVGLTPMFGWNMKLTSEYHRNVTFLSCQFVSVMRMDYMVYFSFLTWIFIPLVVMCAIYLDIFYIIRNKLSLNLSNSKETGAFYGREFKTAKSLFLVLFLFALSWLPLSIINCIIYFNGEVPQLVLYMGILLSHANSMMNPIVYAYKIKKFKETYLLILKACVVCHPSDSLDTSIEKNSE

[4] = target: T4, Adenosine receptor A1 (Rattus norvegicus, UniProt P25099); test: Displacement of [3H]ADAC from adenosine A1 receptor in rat cerebral cortical membranes after 120 mins; format: cell membranes, Membrane
T4 sequence (P25099 whole entry): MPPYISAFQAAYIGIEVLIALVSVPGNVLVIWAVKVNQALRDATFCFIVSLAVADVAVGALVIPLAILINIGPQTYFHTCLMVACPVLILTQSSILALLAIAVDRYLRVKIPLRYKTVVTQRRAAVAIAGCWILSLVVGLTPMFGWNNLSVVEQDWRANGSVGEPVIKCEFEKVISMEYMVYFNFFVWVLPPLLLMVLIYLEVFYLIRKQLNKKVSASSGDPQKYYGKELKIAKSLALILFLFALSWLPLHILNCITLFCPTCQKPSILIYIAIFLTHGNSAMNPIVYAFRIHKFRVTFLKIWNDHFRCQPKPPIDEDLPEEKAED

[5] = target: T5, Adenosine receptor A1 (Bos taurus, UniProt P28190); test: Displacement of [3H]ADAC from adenosine A1 receptor in bovine cerebral cortical membranes after 120 mins; format: cell membranes
T5 sequence (P28190 whole entry): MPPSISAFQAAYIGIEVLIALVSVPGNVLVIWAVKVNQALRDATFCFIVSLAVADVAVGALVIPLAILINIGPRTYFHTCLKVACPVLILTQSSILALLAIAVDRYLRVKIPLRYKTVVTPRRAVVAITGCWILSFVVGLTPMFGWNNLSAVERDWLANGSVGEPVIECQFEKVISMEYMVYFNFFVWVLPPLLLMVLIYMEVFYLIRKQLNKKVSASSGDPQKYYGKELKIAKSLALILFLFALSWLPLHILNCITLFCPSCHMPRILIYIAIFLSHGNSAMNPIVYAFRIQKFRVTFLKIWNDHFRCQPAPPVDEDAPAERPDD

[6] = target: T1, Adenosine receptor A1 (Homo sapiens); test: Displacement of [3H]DPCPX from human adenosine A1 receptor expressed in CHO cells up to 0.1 mM after 2 hrs by scintillation counting analysis; format: cell-based
[7] = target: T6, Adenosine receptor A1 (Homo sapiens, UniProt P30542); test: Antagonist activity at human adenosine A1 receptor expressed in CHO cells coexpressing cAMP response element assessed as inhibition of agonist-induced response by SPAP reporter gene assay in presence of forskolin; format: functional, cell-based
T6 sequence (P30542 whole entry): T1 sequence (whole entry)

[8] = target: T2, Adenosine receptor A2a; test: Competitive binding affinity to human adenosine A2A receptor expressed in HEK293 cells after 60 mins by fluorescence polarization assay in presence of MRS5346
[9] = target: T2, Adenosine receptor A2a; test: Displacement of [3H]CGS21680 from human adenosine A2A receptor expressed in HEK293 cells after 60 mins by […] analysis; format: cell-based
[10] = target: T3, Adenosine receptor A3
Description: (§1) Displacement of [125I]I-AB-MECA from human adenosine A3 receptor expressed in CHO cells after 90 mins by gamma counting analysis

[11] = target: T6, Adenosine receptor A1; test: Displacement of [3H]DPCPX from adenosine A1 receptor in human cortical membranes; format: cell membranes
[12] = target: T3, Adenosine receptor A3; format: cell-based, CHO; remark: listed apart in the source
[13] = target: T2, Adenosine receptor A2a; test: Displacement of [3H]CGS21680 from adenosine A2A receptor in human striatal membranes; format: cell membranes, Striatum, Membrane
[14] = target: T3, Adenosine receptor A3; remark: listed apart in the source
Description: Competitive binding affinity to human adenosine A3 receptor expressed in CHO cells after 90 mins by flow cytometric analysis in presence of MRS5449

[15] = target: T3, Adenosine receptor A3; test: biochemical
Description: as §1

Cn1cc2c(nc(NCCOCCOCCNC(=S)Nc3ccc(C4c5ccc(O)cc5OC5=CC(=O)C=CC54)c(C(=O)O)c3)n3nc(-c4ccco4)nc23)n1 (centres undefined)
inhibition [1]: 0% | inhibition [2]: 30% | Ki [3]: 9.55 µM

CCCn1c(=O)c2[nH]c(-c3ccc(OCC(=O)NCCNC(=S)Nc4ccc(C5c6ccc(O)cc6OC6=CC(=O)C=CC65)c(C(=O)O)c4)cc3)nc2n(CCC)c1=O (centres undefined)
Ki [4]: 126 nM | Ki [5]: 9.33 nM

CCNC(=O)[C@H]1O[C@@H](n2cnc3c(NCCCCNC(=O)CCCCCN4/C(=C/C=C/C=C/C5=[N+](CC)c6cc(S(=O)(=O)O)ccc6C5(C)C)C(C)(C)c5cc(S(=O)(=O)[O-])ccc54)ncnc32)[C@H](O)[C@@H]1O
Activity [6]: inactive

CCNC(=O)[C@H]1O[C@@H](n2cnc3c(NCCNC(=O)COc4ccc(/C=C/C5=[N+]6C(=Cc7ccc(-c8cccs8)n7[B-]6(F)F)C=C5)cc4)ncnc32)[C@H](O)[C@@H]1O
Kd [7]: 14.5 nM

O=C1C=CC2C(=C1)Oc1cc(O)ccc1C2c1ccc(NC(=S)NCCNC(=O)Cc2ccc(NC(=O)Cc3ccc(Nc4ncnc5c4ncn5[C@@H]4O[C@H](CO)[C@@H](O)[C@H]4O)cc3)cc2)cc1C(=O)O (some centres undefined)
Ki [4]: 7.24 nM | Ki [5]: 2.88 nM

CCNC(=O)[C@H]1O[C@@H](n2cnc3c(NCCCCNC(=O)COc4ccc(/C=C/C5=[N+]6C(=Cc7ccc(-c8cccs8)n7[B-]6(F)F)C=C5)cc4)ncnc32)[C@H](O)[C@@H]1O
Kd [7]: 16.2 nM

OC[C@H]1O[C@@H](n2cnc3c(NC4CCCC4)ncnc32)[C@H](O)[C@@H]1O [N6-CYCLOPENTYLADENOSINE]
Ki [8]: 814 nM

Cn1cc2c(nc(NCCCCNC(=S)Nc3ccc(C4c5ccc(O)cc5OC5=CC(=O)C=CC54)c(C(=O)O)c3)n3nc(-c4ccco4)nc23)n1 (centres undefined)
inhibition [1]: 7% | Ki [9]: 468 nM | Ki [3]: 0.724 µM

CCCN1C(=O)C2NC(c3ccc(OCC(=O)NCCNC(=O)NCC(=O)NCC(=O)NCC(=S)c4ccc(C5c6ccc(O)cc6OC6=CC(=O)C=CC65)c(C(=O)O)c4)cc3)=NC2N(CCC)C1=O (centres undefined)
Ki [4]: 97.7 nM | Ki [5]: 17 nM

O=C(Cc1ccc(NC(=O)Cc2ccc(Nc3ncnc4c3ncn4[C@@H]3O[C@H](CO)[C@@H](O)[C@H]3O)cc2)cc1)NCCNc1ccc([N+](=O)[O-])c2nonc12
Ki [4]: 4.37 nM | Ki [5]: 1.62 nM

Nc1nc(NCCc2ccc(O)cc2)nc2nc(-c3ccco3)nn12 [ZM-241385]
Ki [10]: 743 nM

CCNC(=O)[C@H]1O[C@@H](n2cnc3c(NCCCNC(=O)COc4ccc(/C=C/C5=[N+]6C(=Cc7ccc(-c8cccs8)n7[B-]6(F)F)C=C5)cc4)ncnc32)[C@H](O)[C@@H]1O
Kd [7]: 16.2 nM

Cn1cc2c(nc(NCCCCCNC(=S)Nc3ccc(C4c5ccc(O)cc5OC5=CC(=O)C=CC54)c(C(=O)O)c3)n3nc(-c4ccco4)nc23)n1 (centres undefined)
inhibition [1]: 9% | Ki [9]: 1780 nM | Ki [3]: 5.62 µM

CCNC(=O)[C@H]1O[C@@H](n2cnc3c(NCCOCCOCCNC(=O)COc4ccc(/C=C/C5=[N+]6C(=Cc7ccc(-c8cccs8)n7[B-]6(F)F)C=C5)cc4)ncnc32)[C@H](O)[C@@H]1O
Kd [7]: 17.8 nM

CCNC(=O)[C@H]1O[C@@H](n2cnc3c(NCCCCNc4ccc([N+](=O)[O-])c5nonc45)ncnc32)[C@H](O)[C@@H]1O
Ki [11]: > 10 µM | Ki [12]: 389 nM | Ki [13]: > 10 µM

CC[C@@H]1CN2C(=O)N(C)c3nc(-c4cc(Cl)cc(Cl)c4Cl)[nH]c3C2=N1
Ki [14]: 9.54 nM | Ki [15]: 0.441 nM
